Target: Bifunctional protein GlmU (Escherichia coli (strain K12), UniProt P0ACC7)
Experiment: Inhibition of Escherichia coli GlmU acetyltransferase activity assessed as coenzyme A production using acetyl CoA substrate

Sequence of Bifunctional protein GlmU (P0ACC7 whole entry): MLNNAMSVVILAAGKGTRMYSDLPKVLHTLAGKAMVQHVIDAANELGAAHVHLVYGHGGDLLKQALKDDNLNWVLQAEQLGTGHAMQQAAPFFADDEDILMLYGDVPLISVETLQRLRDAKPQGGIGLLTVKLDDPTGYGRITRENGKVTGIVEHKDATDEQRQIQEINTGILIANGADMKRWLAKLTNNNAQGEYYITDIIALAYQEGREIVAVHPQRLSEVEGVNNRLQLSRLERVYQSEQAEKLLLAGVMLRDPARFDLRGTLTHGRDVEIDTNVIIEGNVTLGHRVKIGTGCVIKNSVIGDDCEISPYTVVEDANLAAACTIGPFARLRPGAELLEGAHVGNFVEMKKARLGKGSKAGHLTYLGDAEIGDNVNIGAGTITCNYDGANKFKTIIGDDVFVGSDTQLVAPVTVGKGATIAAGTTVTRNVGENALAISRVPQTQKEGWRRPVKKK

Compound | IC50
COc1cc(OC)c(S(=O)(=O)N2c3ccccc3CC[C@@H]2C)cc1NC(=O)/C=C/C(=O)O | 0.5 µM
COc1cc(OC)c(S(=O)(=O)Nc2cccc(F)c2)cc1NC(C)=O | 15 µM
COc1cc(OC)c(S(=O)(=O)N2CCCC[C@@H]2C)cc1NC(C)=O | 130 µM
COc1cc(OC)c(S(=O)(=O)N(c2ccccc2)c2ccc3ccccc3c2)cc1NC(=O)CCC(=O)O | 0.04 µM

Continued by falling IC50, values first:

IC50 | Compound
200 µM | COc1cc(OC)c(S(=O)(=O)N(C)C)cc1NC(C)=O
200 µM | COc1cc(OC)c(S(=O)(=O)N2c3ccccc3CC[C@@H]2C)cc1NC(=O)COc1ccc(C(C)=O)cc1
21 µM | COc1cc(OC)c(S(=O)(=O)Nc2ccc(C)cc2)cc1NC(C)=O
3 µM | COc1cc(OC)c(S(=O)(=O)NCc2ccccc2N2CCCCC2)cc1NC(=O)CCC(=O)O
0.1 µM | COc1cc(OC)c(S(=O)(=O)N2c3ccccc3CC[C@H]2C)cc1NC(=O)CSCC(=O)O
0.04 µM | COc1cc(OC)c(S(=O)(=O)N(c2ccc(C)cc2)c2ccc(C)cc2)cc1NC(=O)CCC(=O)O

Reference: ChEMBL document CHEMBL3414535, “Identification and optimization of Escherichia coli GlmU inhibitors: an in silico approach with validation thereof” (Eur J Med Chem, 2015)
